# Laboratory results from article PMC11678491, “Bis-Iridoid Glycosides and Triterpenoids from Kolkwitzia amabilis and Their Potential as Inhibitors of ACC1 and ACL” (Molecules, 2024).
# Read-outs that look alike come from different tables or passages of the source.
# How the values were obtained:
# ATP-citrate lyase (ACL) = molecular target: T1, ATP-citrate lyase (ACL) (Homo sapiens, UniProt P53396); test: ACL inhibitory assay (ADP-Glo luminescence); type: biochemical
# T1 sequence (P53396 1-1101): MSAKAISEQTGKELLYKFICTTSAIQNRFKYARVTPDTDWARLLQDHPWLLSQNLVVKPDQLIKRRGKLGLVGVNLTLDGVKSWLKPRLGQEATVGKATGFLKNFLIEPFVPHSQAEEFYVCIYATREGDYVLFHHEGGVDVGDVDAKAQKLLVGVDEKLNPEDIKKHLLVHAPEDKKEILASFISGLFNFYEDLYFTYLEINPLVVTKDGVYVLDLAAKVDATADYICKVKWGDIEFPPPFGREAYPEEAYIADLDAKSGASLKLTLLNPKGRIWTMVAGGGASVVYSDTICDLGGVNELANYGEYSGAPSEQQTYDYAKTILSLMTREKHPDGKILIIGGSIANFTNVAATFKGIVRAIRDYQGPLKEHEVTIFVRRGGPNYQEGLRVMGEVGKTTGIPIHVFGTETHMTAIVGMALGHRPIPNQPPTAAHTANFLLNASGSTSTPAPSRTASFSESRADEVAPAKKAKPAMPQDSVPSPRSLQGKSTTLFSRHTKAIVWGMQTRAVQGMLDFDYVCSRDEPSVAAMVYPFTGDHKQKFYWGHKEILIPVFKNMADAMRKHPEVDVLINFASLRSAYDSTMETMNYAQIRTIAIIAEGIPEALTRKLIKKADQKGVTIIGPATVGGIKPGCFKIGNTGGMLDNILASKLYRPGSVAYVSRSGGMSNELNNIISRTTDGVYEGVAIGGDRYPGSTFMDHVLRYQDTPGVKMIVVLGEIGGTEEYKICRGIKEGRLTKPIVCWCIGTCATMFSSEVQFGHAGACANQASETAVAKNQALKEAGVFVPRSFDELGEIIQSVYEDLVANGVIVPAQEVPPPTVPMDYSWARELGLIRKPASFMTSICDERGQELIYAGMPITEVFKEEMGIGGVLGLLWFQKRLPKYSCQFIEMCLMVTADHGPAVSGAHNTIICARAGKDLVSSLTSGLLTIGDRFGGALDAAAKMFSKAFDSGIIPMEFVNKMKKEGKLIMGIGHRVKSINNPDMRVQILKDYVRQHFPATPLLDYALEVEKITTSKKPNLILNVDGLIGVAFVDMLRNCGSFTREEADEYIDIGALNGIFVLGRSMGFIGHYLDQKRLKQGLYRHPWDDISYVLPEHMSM
# Protocol: (§1) The ACC1 and ACL inhibitory activity assay were conducted using ADP-Glo^TM luminescence assay reagents (Promega Biotech Co., Ltd, Beijing, China), which measure ACC1 or ACL activity by quantifying the amount of ADP generated in the enzymatic reaction. […] Reactions were conducted in each well for 30 min at room temperature. Following this, 2.0 μL of ATP was added to each well, and the mixture was incubated for 1 h at room temperature. Negative control wells, which lacked the protein kinase, substrate, and ATP, were also included in the kinase assay. After the enzymatic reaction, 2.5 μL of ADP-Glo reagent was added to each well to terminate the kinase reaction and deplete any unconsumed ATP within 1 h at room temperature. Finally, 5.0 μL of kinase detection reagent was added to each well and incubated for 1 h to convert ADP to ATP. The luminescence signal was measured using a PerkinElmer EnVision reader.
# [1] = molecular target: acetyl CoA carboxylase 1 (ACC1) (Homo sapiens, UniProt Q13085); test: ACC1 inhibitory assay (ADP-Glo luminescence); type: biochemical
# Protocol: as §1
# [2] = mean ± SEM of triplicated experiments
# [3] = Figure 5, mean ± standard deviation (SD) (n = 3), read-out: IC50 (ACC1)
# [4] = mean ± SEM of triplicated experiments, read-out: IC50 ACC1
# [5] = Figure 5, mean ± standard deviation (SD) (n = 3)
IC50 (ATP-citrate lyase (ACL); [2]),"IC50 [1, 3]","IC50 [1, 4]",IC50 (ATP-citrate lyase (ACL); [5]),IC50 [1],Structure (SMILES)
0.3 ± 0.1 µM,–,–,–,–,"COc1ccc(-c2ccccc2)cc1NS(=O)(=O)c1cc(Cl)cc(Cl)c1O [BMS 303141, reference compound]"
4.7 ± 1.3 µM,–,> 20 µM,4.69 ± 1.3 µM,–,"CC1(C)CC[C@]2(C(=O)O)CC[C@]3(C)C(=CC[C@@H]4[C@@]5(C)CC[C@H](O)[C@@](C)(COC(=O)/C=C/c6ccc(O)cc6)[C@@H]5CC[C@]43C)[C@@H]2C1 [Compound 31, (23E)-coumaroylhederagenin]"
–,–,–,–,0.002 ± 0.0001 µM,"COc1ccccc1[C@H](Cn1c(=O)n(C(C)(C)C(=O)O)c(=O)c2c(C)c(-c3ncco3)sc21)OC1CCOCC1 [ND 630, Firsocostat, reference compound]"

# Second part, the compound before the results:
Structure (SMILES),IC50 (ATP-citrate lyase (ACL); [2]),"IC50 [1, 3]","IC50 [1, 4]",IC50 (ATP-citrate lyase (ACL); [5]),IC50 [1]
"C=C[C@H]1[C@H](O[C@@H]2O[C@H](CO)[C@@H](O)[C@H](O)[C@H]2O)OC=C(C(=O)O[C@H]2C[C@@H]3C(C(=O)OC)=CO[C@@H](O[C@@H]4O[C@H](CO)[C@@H](O)[C@H](OC(=O)/C=C/c5ccc(O)c(O)c5)[C@H]4O)[C@@H]3[C@@H]2C)[C@H]1CC(OC)OC [Compound 2, Amabilioside B]",–,9.64 ± 0.99 µM,9.6 ± 1 µM,–,–
"C=C[C@H]1[C@H](O[C@@H]2O[C@H](CO)[C@@H](O)[C@H](O)[C@H]2O)OC=C(C(=O)O[C@H]2C[C@@H]3C(C(=O)OC)=CO[C@@H](O)[C@@H]3[C@@H]2C)[C@H]1CC(OC)OC [Compound 8, lonicejaposide C]",3.6 ± 0.9 µM,–,> 20 µM,3.63 ± 0.91 µM,–
"CC(=O)O[C@H]1CC[C@]2(C)[C@H]3CC=C4[C@@H]5[C@@H](C)[C@H](C)CC[C@]5(C(=O)O)CC[C@@]4(C)[C@]3(C)CC[C@H]2C1(C)C [Compound 17, 3β-acetyl-ursolic acid]",2 ± 0.5 µM,10.3 ± 0.78 µM,10.3 ± 0.8 µM,–,–
